Results published in patent publication US6288082A, “Substituted 3-cyanoquinolines” (priority 1999, dated 2001).
“And” between values parts separate entries of the source, which are not always exact repeats. Equal values may be shown once. Where a name gives a salt, the structure may show the parent alone.

biological target: Mitogen Activated Protein Kinase (Mek-Erk); experiment: Mitogen Activated Protein Kinase (MAPK) assay, coupled Mek-Erk; format: biochemical, human; conditions: MBP or Myc peptide substrate, pH 7.4
Experimental: Mitogen Activated Protein Kinase (MAPK) Assay
To evaluate inhibitors of the MAP (mitogen activated protein) kinase a two component coupled standard pharmacological test procedure, which measures phosphorylation of a serine/threonine residue in an appropriate sequence in the substrate in the presence and absence of a putative inhibitor, was used. Recombinant human MEK 1 (MAPKK) was first used to activate recombinant human ERK2 (MAPK) and the activated MAPK (ERK) was incubated with substrate (MBP peptide or MYC peptide) in the presence of ATP, Mg^+2 and radiolabeled ^33 P ATP. The phosphorylated peptide was captured on a P 81 phosphocellulose filter (paper filter or embedded in microtiter plate) washed and counted by scintillation methods.
The peptide substrates used in the assay are MBP, peptide substrate ([…]), or synthetic Myc substrate, ([…]·5 TFA. The recombinant enzymes used were prepared as GST fusion proteins of human ERK 2 and human MEK 1. Inhibitor samples were prepared as 10×stocks in 10% DMSO and an appropriate aliquot was used to deliver either 10 ug/ml for a single point screening dose or 100, 10, 1, and 0.1 uM final concentration for a dose response curve. Final DMSO concentrations were less than or equal to 1%.
The reaction was run as follows in 50 mM Tris kinase buffer, pH 7.4 in a reaction volume of 50 ul. The appropriate volume of kinase buffer and inhibitor sample was added to the tube. Appropriate dilution of enzyme was delivered to give 2-5 ug recombinant MAPK (Erk ) per tube. The inhibitor was incubated with MAPK (Erk) for 30 min at 0 deg. C. Recombinant Mek (MAPKK) (0.5-2.5 ug) or fully activated Mek (0.05-0.1 units) was added to activate the Erk and incubated for 30 min at 30° C. Then substrate and gamma ^33 P ATP was were added to give a final concentration of 0.5-1 mM MBPP or 250-500 uM Myc; 0.2-0.5 uCi gamma P 33 ATP/tube; 50 μM ATP final concentration. Samples were incubated at 30° C. for 30 minutes and the reaction was stopped by adding 25 μl of ice cold 10% TCA. After samples were chilled on ice for 30 min, 20 μl of sample was transferred onto P 81 phosphocellulose filter paper or appropriate MTP with embedded P 81 filter. Filter papers or MTP were washed 2 times with a large volume of 1% acetic acid, then 2 times with water. The filters or MTP were briefly air dried before addition of scintillant and samples were counted in the appropriate scintillation counter set up for reading ^33 P isotope. Samples included a positive control (activated enzyme plus substrate); a no enzyme control; a no substrate control; samples with different concentrations of putative inhibitor; and samples with reference inhibitors (other active compounds or non-specific inhibitors such as staurosporine or K252 B).
The raw data was captured as cpm. Sample replicates were averaged and corrected for background count. Mean cpm data was tabulated by group and % inhibition by a test compound was calculated as (corrected cpm control-corrected. cpm sample/control)×100=% inhibition. […] The results obtained for representative compounds of this invention are listed in TABLE 2 where there may be separate entries for the same compound; this is an indication that the compound was evaluated more than one time.

| IC50 | Structure (SMILES) |
| --- | --- |
| 35 µM | N#Cc1cnc2cc3c(cc2c1Nc1ccc2cn[nH]c2c1)OCCO3 [Example 125, 9-(1H-Indazol-6-ylamino)-2,3-dihydro[1,4]dioxino[2,3-g]quinoline-8-carbonitrile] |
| > 100 µM | COc1cc2ncc(C#N)c(Nc3ccc4sc(C)nc4c3)c2cc1OC [Example 130, 6,7-Dimethoxy-4-(2-methyl-benzothiazol-5-ylamino)-quinoline-3-carbonitrile] |
| 35 µM | COc1cc2c(Nc3ccc4nn[nH]c4c3)c(C#N)cnc2c(OC)c1OC [Example 156, 4-(3H-Benzotriazol-5-ylamino)-6,7,8-Trimethoxy-quinoline-3-carbonitrile] |
| 90 µM | COc1cc2ncc(C#N)c(Nc3cccc4cnccc34)c2cc1OC [Example 133, 4-(Isoquinolin-5-ylamino)-6,7-dimethoxy-quinoline-3-carbonitrile] |
| > 100 µM | COc1cc2ncc(C#N)c(Nc3ccc4c(C)cc(=O)[nH]c4c3)c2cc1OC [Example 129, 6,7-Dimethoxy-4-(4-methyl-2-oxo-1,2-dihydro-quinolin-7-ylamino)-quinoline-3-carbonitrile] |
| > 100 µM | COc1cc2ncc(C#N)c(Nc3ccc(O)c4ncccc34)c2cc1OC [Example 135, 4-(8-Hydroxy-quinolin-5-ylamino)-6,7-dimethoxy-quinoline-3-carbonitrile] |
| > 100 µM and 100 µM | COc1cc2c(Nc3ccc4cn[nH]c4c3)c(C#N)cnc2c(OC)c1OC [Example 128, 4-(1H-Indazol-6-ylamino)-6,7,8-trimethoxy-quinoline-3-carbonitrile] |
| 4 µM | COc1cc2ncc(C#N)c(Nc3cccc4c3CCCC4)c2cc1OC [Example 155, 6,7-Dimethoxy-4-(5,6,7,8,-tetrahydro-naphthalen-1-ylamino)-quinoline-3-carbonitrile] |
| 3 µM | COc1ccc2ncc(C#N)c(Nc3ccc4cn[nH]c4c3)c2c1 [Example 141, 4-(1H-Indazol 6-ylamino)-6-methoxy-quinoline-3-carbonitrile] |
| > 100 µM | CCOc1cc2c(Nc3ccc4cn[nH]c4c3)c(C#N)cnc2cc1OC [Example 126, 6-Ethoxy-4-(1H-indazol-6-ylamino)-7-methoxyquinoline-3-carbonitrile] |
| > 100 µM | COc1cc2ncc(C#N)c(Nc3ccc4ncccc4c3)c2cc1OC [Example 153, 6,7-Dimethoxy-4-(quinoline-6-ylamino)-quinoline-3-carbonitrile] |
| 90 µM | COc1cc2ncc(C#N)c(Nc3cccc4ncccc34)c2cc1OC [Example 132, 6,7-Dimethoxy-4-(quinolin-5-ylamino)-quinoline-3-carbonitrile] |
| 15 µM | COc1cc2ncc(C#N)c(Nc3ccc4cn[nH]c4c3)c2cc1OCCCN1CCOCC1 [Example 139, 4-(1H-Indazol-6-ylamino)-7-methoxy-6-(3-morpholine-4-yl-propoxy)-quinoline-3-carbonitrile hydrochloride] |
| 3 µM | COc1ccc2c(Nc3ccc4[nH]ccc4c3)c(C#N)cnc2c1 [Example 146, 4-(1H-Indol-5-ylamino)-7-methoxy-quinoline-3-carbonitrile] |
| 0.5 µM | COc1cc2ncc(C#N)c(Nc3ccc4cn[nH]c4c3)c2cc1OC [Example 102, 6,7-Dimethoxy-4-(1H-indazol-6-ylamino)-quinoline-3-carbonitrile] |
| > 100 µM | COc1cccc2c(Nc3ccc4cn[nH]c4c3)c(C#N)cnc12 [Example 148, 4-(1H-Indazol-6-ylamino)-8-methoxy-quinoline-3-carbonitrile] |
| 8 µM | COc1cc2c(Nc3ccc4cn[nH]c4c3)c(C#N)cnc2cc1OCCN(C)C [Example 167, 7-(2-Dimethylaminoethoxy)-4-(1H-indazol-6-ylamino)-6-methoxyquinoline-3-carbonitrile] |
| 30 µM | COc1ccc2ncc(C#N)c(Nc3ccc4nn[nH]c4c3)c2c1 [Example 142, 4-(3H-Benzotriazol-5-ylamino)-6-methoxy-quinoline-3-carbonitrile] |
| > 100 µM | COc1ccc2c(Nc3ccc4[nH]nnc4c3)c(C#N)cnc2c1 [Example 144, 4-(3H-benzotriazol-5-ylamino)-7-methoxy-quinoline-3-carbinitile] |
| > 100 µM | COc1cc2ncc(C#N)c(Nc3ccc4[nH]c(=O)sc4c3)c2cc1OC [Example 131, 6,7-Dimethoxy-4-(2-oxo-2,3-dihydro-benzothiazol-6-ylamino)-quinoline-3-carbonitrile] |
| > 100 µM | CCOc1cc2ncc(C#N)c(Nc3ccc4[nH]c(=O)oc(=O)c4c3)c2cc1OCC [Example 109, 4-(2,4-Dioxo-1,4-dihydro-2H-benzo[d][1,3]oxazin-6-ylamino)-6,7-diethoxy-quinoline-3-carbonitrile] |
| > 100 µM | COc1cc2ncc(C#N)c(Nc3cccc4cccnc34)c2cc1OC [Example 134, 6,7-Dimethoxy-4-(quinolin-8-ylamino)-quinoline-3-carbonitrile] |
| 55 µM | CCOc1cc2ncc(C#N)c(Nc3ccc4ncsc4c3)c2cc1OCC [Example 97, 4-(Benzothiazol-6-ylamino)-6,7-diethoxy-quinoline-3-carbonitrile HCl Salt] |
| 35 µM | CCOc1cc2ncc(C#N)c(Nc3ccc4c(c3)C(=O)NC4=O)c2cc1OCC [Example 104, 4-(1,3-Dioxo-2,3-dihydro-1H-isoindol-5-ylamino)-6,7-diethoxy-quinoline-3-carbonitrile] |
| > 100 µM | COc1ccc(OC)c2c(Nc3ccc4cn[nH]c4c3)c(C#N)cnc12 [Example 138, 4-(1H-Indazol-6-ylamino)-5,8-dimethoxy-quinoline-3-carbonitrile] |
| 6 µM | COc1ccc2c(Nc3ccc4cn[nH]c4c3)c(C#N)cnc2c1 [Example 143, 4-(1H-Indazol-6-ylamino)-7-methoxy-quinoline-3-carbonitrile] |
| > 100 µM | COc1cc2ncc(C#N)c(Nc3ccc4[nH]c(C)nc4c3)c2cc1OC [Example 152, 6,7-Dimethoxy-4-(2-methyl-1H-benzoimidazol-5-ylamino)-quinoline-3-carbonitrile] |
| > 100 µM | CCOc1cc2ncc(C#N)c(Nc3ccc4c(c3)S(=O)(=O)C=C4)c2cc1OCC [Example 112, 4-(1,1-Dioxo-1H-benzo[b]thiophen-6-ylamino)-6,7-diethoxy-quinoline-3-carbonitrile] |
| > 100 µM | COc1cccc2c(Nc3ccc4nn[nH]c4c3)c(C#N)cnc12 [Example 149, 4-(3H-benzotriazol-5-ylamino)-8-methoxy-quinoline-3-carbonitrile] |

same assay, conditions: MBP or Myc peptide substrate, pH 7.4; hydrochloride

| IC50 | Structure (SMILES) |
| --- | --- |
| 22 µM and 15 µM | COc1cc2ncc(C#N)c(Nc3ccc4[nH]nnc4c3)c2cc1OCCCN1CCOCC1 [Example 140, 4-(3H-Benzotriazol-5-ylamino)-7-methoxy-6-(3-morpholin-4-yl-proloxy)-quinoline-3-carbonitrile hydrochloride] |
